Data on 6 compounds can be found in ChEMBL document CHEMBL1155176, “Investigating Toll-like receptor agonists for potential to treat hepatitis C virus infection” (Antimicrob Agents Chemother, 2007).

Each structure is given as a SMILES string. Active and inactive are the calls of the source. The rule behind the calls is not given here. Residues, ends and D or L forms follow the SMILES beside them. *: point of attachment. X1 = CCCCCCCCCCCCCCCC(=O)OCC(C*)OC(=O)CCCCCCCCCCCCCCC; Palmitoyl = CCCCCCCCCCCCCCCC(=O)*

In data set [1] the test system is PBMC. Nature of the data set: Toxic induction of IL1-beta level in human PBMC assessed as drug level causing maximal cytokine induction after 24 hrs relative to control. The format is toxicity, cell-based.
The test system of data set [2] is PBMC. Nature of the data set: Induction of IFNalpha2a level in human PBMC assessed as drug level causing maximal cytokine induction after 24 hrs relative to control. Type of data set: functional.
Data set [3] deals with PBMC. The data set can be described thus: Increase in 2',5'-oligoadenylate synthase level in human PBMC after 24 hrs by PCR method relative to control. Type of data set: functional, cell-based.
Data set [4] concerns PBMC. Nature of the data set: Toxic induction of IL6 level in human PBMC assessed as drug level causing maximal cytokine induction after 24 hrs relative to control. Type of data set: toxicity, cell-based.
For data set [5], the system named is PBMC. The data set can be described thus: Toxic induction of TNFalpha level in human PBMC assessed as drug level causing maximal cytokine induction after 24 hrs relative to control. The format is toxicity, cell-based.
Data set [6] concerns Hepatitis C virus. The data set can be described thus: Antiviral activity against HCV infected human Huh7 replicon cells assessed as viral levels by luciferase assay. Type of data set: functional, organism-based. The conditions noted are these: Hepacivirus hominis; Huh-7. A general note: Replicon systems follow genome replication, usually without infectious particles.
The test system of data set [7] is PBMC. The data set can be described thus: (§1) Increase in IFNalpha level in human PBMC after 24 hrs relative to control. Type of data set: functional, cell-based.
In data set [8] the test system is Hepatitis C virus. The data set can be described thus: Antiviral activity against HCV infected human Huh7 replicon cells treated with drug-induced human PBMC supernatants assessed as viral levels by luciferase assay. The format is functional, organism-based. The conditions noted are these: Hepacivirus hominis.
Data set [9] relates to Hepatitis C virus. Nature of the data set: Antiviral activity against HCV infected human Huh7 replicon cells treated with 3 uM drug-induced human PBMC supernatants assessed as viral levels in presence of type I IFN receptor antibody by luciferase assay. The format is functional, organism-based. The conditions noted are these: Hepacivirus hominis.
In data set [10] the test system is Hepatitis C virus. The data set can be described thus: Antiviral activity against HCV infected human Huh7 replicon cells treated with 200 nM drug-induced human PBMC supernatants assessed as viral levels in presence of type I IFN receptor antibody by luciferase assay. The format is functional, organism-based. The conditions noted are these: Hepacivirus hominis.

In data set [11] the test system is Hepatitis C virus. Nature of the data set: Antiviral activity against HCV infected human Huh7 replicon cells treated with 20 uM drug-induced human PBMC supernatants assessed as viral levels in presence of type I IFN receptor antibody by luciferase assay. The format is functional, organism-based. The conditions noted are these: Hepacivirus hominis.
For data set [12], the system named is Hepatitis C virus. The data set can be described thus: Antiviral activity against HCV infected human Huh7 replicon cells treated for 48 hrs with drug-induced mixed donor human PBMC supernatants assessed as viral levels by luciferase assay. Type of data set: functional, organism-based, Hepacivirus hominis.
Data set [13] has as its system PBMC. The data set can be described thus: Toxicity assessed as increase in IL6 level in human PBMC after 24 hrs relative to control. The format is functional, cell-based.
Data set [14] relates to PBMC. The data set can be described thus: Increase in 2',5'-oligoadenylate synthase level in human PBMC after 24 hrs relative to control. Type of data set: functional, cell-based.
The subject of data set [15] is Hepatitis C virus. The data set can be described thus: Antiviral activity against HCV infected human Huh7 replicon cells treated for 24 hrs with drug-induced human PBMC supernatants assessed as viral levels by luciferase assay. Type of data set: functional, organism-based. The conditions noted are these: Hepacivirus hominis.
For data set [16], the system named is PBMC. Nature of the data set: Toxicity assessed as increase in TNFalpha level in human PBMC after 6 hrs relative to control. Type of data set: cell-based.
The test system of data set [17] is PBMC. Described as §1. Type of data set: functional, cell-based. The source holds these as a separate data set.
Data set [18] concerns Hepatitis C virus. Nature of the data set: Antiviral activity against HCV infected human Huh7 replicon cells treated for 48 hrs with drug-induced single donor human PBMC supernatants assessed as viral levels by luciferase assay. Type of data set: functional, organism-based, Hepacivirus hominis.
Data set [19] concerns Hepatitis C virus. The data set can be described thus: Antiviral activity against HCV infected human Huh7 replicon cells treated with 100 nM drug-induced human PBMC supernatants assessed as viral levels in presence of type I IFN receptor antibody by luciferase assay. Type of data set: functional, organism-based. The conditions noted are these: Hepacivirus hominis.

As to `Cc1cn([C@H]2C[C@H](OP(=O)(O)OC[C@H]3O[C@@H](n4cnc5c(=O)[nH]c(N)nc54)[C@H](O)[C@@H]3OP(=O)(O)OC[C@H]3O[C@@H](n4cc(C)c(=O)[nH]c4=O)C[C@@H]3OP(=O)(O)OC[C@H]3O[C@@H](n4cc(C)c(=O)[nH]c4=O)C[C@@H]3OP(=O)(O)OC[C@H]3O[C@@H](n4cc(C)c(=O)[nH]c4=O)C[C@@H]3OP(=O)(O)OC[C@H]3O[C@@H](n4cc(C)c(=O)[nH]c4=O)C[C@@H]3OP(=O)(O)OC[C@H]3O[C@@H](n4cnc5c(=O)[nH]c(N)nc54)[C@H](O)[C@@H]3OP(=O)(S)OC[C@H]3O[C@@H](n4ccc(N)nc4=O)[C@H](O)[C@@H]3OP(=O)(O)OC[C@H]3O[C@@H](n4cc(C)c(=O)[nH]c4=O)C[C@@H]3OP(=O)(O)OC[C@H]3O[C@@H](n4cc(C)c(=O)[nH]c4=O)C[C@@H]3O)[C@@H](COP(=O)(O)OC[C@H]3O[C@@H](n4cnc5c(=O)[nH]c(N)nc54)[C@H](O)[C@@H]3OP(O)(=S)OC[C@H]3O[C@@H](n4ccc(N)nc4=O)[C@H](O)[C@@H]3OP(=O)(O)OC[C@H]3O[C@@H](n4cc(C)c(=O)[nH]c4=O)C[C@@H]3OP(=O)(O)OC[C@H]3O[C@@H](n4cnc5c(=O)[nH]c(N)nc54)[C@H](O)[C@@H]3OP(=O)(O)OC[C@H]3O[C@@H](n4cc(C)c(=O)[nH]c4=O)C[C@@H]3OP(=O)(O)OC[C@H]3O[C@@H](n4cc(C)c(=O)[nH]c4=O)C[C@@H]3OP(=O)(O)OC[C@H]3O[C@@H](n4cc(C)c(=O)[nH]c4=O)C[C@@H]3OP(=O)(O)OC[C@H]3O[C@@H](n4cc(C)c(=O)[nH]c4=O)C[C@@H]3OP(=O)(O)OC[C@H]3O[C@@H](n4cnc5c(=O)[nH]c(N)nc54)[C@H](O)[C@@H]3OP(O)(=S)OC[C@H]3O[C@@H](n4ccc(N)nc4=O)[C@H](O)[C@@H]3OP(=O)(O)OC[C@H]3O[C@@H](n4cc(C)c(=O)[nH]c4=O)C[C@@H]3OP(=O)(O)OC[C@H]3O[C@@H](n4cc(C)c(=O)[nH]c4=O)C[C@@H]3O)O2)c(=O)[nH]c1=O` (some centres not stated), the Activity in [1] was 5 µM; in data set [2], 0.2 µM; in data set [3] it was “Dose-dependent effect”; in data set [4] it was 0.2 µM; in data set [5] it was 5 µM; in data set [7] it was “Dose-dependent effect”. In addition, in data set [6], the result was inactive. Also, the outcome in [8] was Active.

Take `CCCc1nc2c(N)nc3ccccc3c2s1`: the Activity was 3.3 µM in data set [1]; 10 µM in data set [2]; “Dose-dependent effect” in data set [3]; 3.3 µM in data set [4]; 10 µM in data set [5]; “Dose-dependent effect” in data set [7]. Also, the outcome in data set [9] and in [6] was inactive. The result in data set [8] was Active.

Take `COCCOc1nc(N)c2[nH]c(=O)n(Cc3ccccc3)c2n1`: the Activity in [1] was 1 µM; in data set [2], 0.1 µM; in data set [3], “Dose-dependent effect”; in data set [4], 1 µM; in data set [5] it was 1 µM; in data set [7], “Dose-dependent effect”. Also, the result in data set [10] and in [6] was inactive. Besides, the outcome in data set [8] was Active.

Regarding `CC(C)Cn1cnc2c(N)nc3ccccc3c21` [IMIQUIMOD], the Activity in [1] is 0.1 µg/mL; in [2], 1 µg/mL; in data set [3] it was “Dose-dependent effect”; in data set [4], 1 µg/mL; in data set [5], 1 µg/mL; in [7], “Dose-dependent effect”. Besides, the outcome in data set [11] and in data set [6] was inactive. Moreover, the result in data set [8] was Active.

In the case of `CCCCCCCCCCCCCCCC(=O)N[C@@H](CSCC(COC(=O)CCCCCCCCCCCCCCC)OC(=O)CCCCCCCCCCCCCCC)C(=O)N[C@@H](CO)C(=O)N[C@@H](CCCCN)C(=O)N[C@@H](CCCCN)C(=O)N[C@@H](CCCCN)C(=O)N[C@@H](CCCCN)C(=O)O` (some centres not stated) (Palmitoyl-C(X1)SKKKK-OH), the Activity in data set [1] came out at 1 µM; in [2] it was 0.3 µM; in data set [4], 1 µM; in data set [5], 0.1 µM. In addition, the result in data set [6] was inactive. The result in [8] was Active.

For orientation: EC50 means the concentration at which the effect is half-maximal. `CCOCc1nc2c(N)nc3ccccc3c2n1CC(C)(C)O` [RESIQUIMOD]: the Activity in data set [1] was 1 µM; in data set [2], 0.1 µM; in [3] it was “Dose-dependent effect”; in data set [4] it was 1 µM; in data set [5], 1 µM; in data set [7], “Dose-dependent effect”. Moreover, the EC50 was 24 nM in data set [12] and 26.5 nM in data set [18]. Further, the outcome in [13], in [14], in data set [15], in [17] and in data set [8] was Active. In addition, the “fold change (FC)” value in [16] came to 2.5. For the same compound, the result in [6] and in data set [19] was inactive.
